# Organism: Rattus norvegicus
# Assay: DrugMatrix - Regimen: Daily Repeat
# Assay type: toxicity, organism-based, Sprague-Dawley
# Design: regimen Daily Repeat, gender Male, age 6-8 weeks
# Conditions: in vivo, sc, route subcutaneous, […]; for ABSOLUTE BASOPHIL / ABSOLUTE EOSINOPHIL / ABSOLUTE LYMPHOCYTE / ABSOLUTE MONOCYTE / ABSOLUTE SEGMENTED NEUTROPHIL / BASOPHIL / EOSINOPHIL / ERYTHROCYTE COUNT / HEMATOCRIT / HEMOGLOBIN / LEUKOCYTE COUNT / LYMPHOCYTE / MEAN CORPUSCULAR HEMOGLOBIN / MEAN CORPUSCULAR HEMOGLOBIN CONCENTRATION / MEAN CORPUSCULAR VOLUME / MONOCYTE / NEUTROPHIL / NUCLEATED RED BLOOD CELLS / PLATELET COUNT: tissue Blood; for ALANINE AMINOTRANSFERASE / ALBUMIN / ALKALINE PHOSPHATASE / ASPARTATE AMINOTRANSFERASE / BLOOD UREA NITROGEN / CARBON DIOXIDE / CHLORIDE / CHOLESTEROL / CREATINE PHOSPHOKINASE / CREATININE / GLUCOSE / LACTATE DEHYDROGENASE / LIPASE / PHOSPHORUS / POTASSIUM / SODIUM / TOTAL BILIRUBIN / TOTAL PROTEIN / URIC ACID: tissue Plasma
# [1] = 260 mg/kg, 72 h, dose level Low, time 3 day
# [2] = 260 mg/kg, 120 h, dose level Low, time 5 day
# [3] = 2600 mg/kg, 72 h, dose level High, time 3 day
# [4] = 2600 mg/kg, 120 h, dose level High, time 5 day
compound,measurement,setting,value
c1ccc2sc(SSc3nc4ccccc4s3)nc2c1 [BENZOTHIAZYL DISULFIDE],ABSOLUTE BASOPHIL,[1],0 CELLS/uL
same,ABSOLUTE EOSINOPHIL,[1],108 CELLS/uL
same,ABSOLUTE LYMPHOCYTE,[1],9435.33 CELLS/uL
same,ABSOLUTE MONOCYTE,[1],328 CELLS/uL
same,ABSOLUTE SEGMENTED NEUTROPHIL,[1],1062 CELLS/uL
same,BASOPHIL,[1],0%
same,EOSINOPHIL,[1],1%
same,ERYTHROCYTE COUNT,[1],5.25 x10E6/uL
same,HEMATOCRIT,[1],33.03%
same,HEMOGLOBIN,[1],12.27 G/DL
same,LEUKOCYTE COUNT,[1],10.93 x10E3/uL
same,LYMPHOCYTE,[1],86.33%
same,MEAN CORPUSCULAR HEMOGLOBIN,[1],23.33 pg
same,MEAN CORPUSCULAR HEMOGLOBIN CONCENTRATION,[1],37.13 G/DL
same,MEAN CORPUSCULAR VOLUME,[1],62.87 fL
same,MONOCYTE,[1],3%
same,NEUTROPHIL,[1],9.67%
same,NUCLEATED RED BLOOD CELLS,[1],0 /100WBC
same,PLATELET COUNT,[1],1377.33 x10E3/uL
same,ALANINE AMINOTRANSFERASE,[1],42 u/L
same,ALBUMIN,[1],3.87 G/DL
same,ALKALINE PHOSPHATASE,[1],365.33 u/L
same,ASPARTATE AMINOTRANSFERASE,[1],91.67 u/L
same,BLOOD UREA NITROGEN,[1],16 mg/dL
same,CARBON DIOXIDE,[1],26 mmol/L
same,CHLORIDE,[1],105.33 MEQ/L
same,CHOLESTEROL,[1],77.33 mg/dL
same,CREATINE PHOSPHOKINASE,[1],411.33 u/L
same,CREATININE,[1],0.21 mg/dL
same,GLUCOSE,[1],149.33 mg/dL
same,LACTATE DEHYDROGENASE,[1],600.33 u/L
same,LIPASE,[1],8.67 u/L
same,PHOSPHORUS,[1],12.73 mg/dL
same,POTASSIUM,[1],6.51 MEQ/L
same,SODIUM,[1],145.03 MEQ/L
same,TOTAL BILIRUBIN,[1],0.17 mg/dL
same,TOTAL PROTEIN,[1],5.4 G/DL
same,URIC ACID,[1],1.47 mg/dL
same,ABSOLUTE BASOPHIL,[2],0 CELLS/uL
same,ABSOLUTE EOSINOPHIL,[2],214.33 CELLS/uL
same,ABSOLUTE LYMPHOCYTE,[2],15055 CELLS/uL
same,ABSOLUTE MONOCYTE,[2],283.33 CELLS/uL
same,ABSOLUTE SEGMENTED NEUTROPHIL,[2],1280.67 CELLS/uL
same,BASOPHIL,[2],0%
same,EOSINOPHIL,[2],1.33%
same,ERYTHROCYTE COUNT,[2],5.49 x10E6/uL
same,HEMATOCRIT,[2],34.87%
same,HEMOGLOBIN,[2],13.17 G/DL
same,LEUKOCYTE COUNT,[2],16.83 x10E3/uL
same,LYMPHOCYTE,[2],89.33%
same,MEAN CORPUSCULAR HEMOGLOBIN,[2],24.1 pg
same,MEAN CORPUSCULAR HEMOGLOBIN CONCENTRATION,[2],37.8 G/DL
same,MEAN CORPUSCULAR VOLUME,[2],63.7 fL
same,MONOCYTE,[2],1.67%
same,NEUTROPHIL,[2],7.67%
same,NUCLEATED RED BLOOD CELLS,[2],0.67 /100WBC
same,PLATELET COUNT,[2],1489.67 x10E3/uL
same,ALANINE AMINOTRANSFERASE,[2],39 u/L
same,ALBUMIN,[2],3.93 G/DL
same,ALKALINE PHOSPHATASE,[2],463.33 u/L
same,ASPARTATE AMINOTRANSFERASE,[2],92.67 u/L
same,BLOOD UREA NITROGEN,[2],18.33 mg/dL
same,CARBON DIOXIDE,[2],28.33 mmol/L
same,CHLORIDE,[2],105.33 MEQ/L
same,CHOLESTEROL,[2],70.67 mg/dL
same,CREATINE PHOSPHOKINASE,[2],529 u/L
same,CREATININE,[2],0.19 mg/dL
same,GLUCOSE,[2],169 mg/dL
same,LACTATE DEHYDROGENASE,[2],102.33 u/L
same,LIPASE,[2],8 u/L
same,PHOSPHORUS,[2],12.13 mg/dL
same,POTASSIUM,[2],6.59 MEQ/L
same,SODIUM,[2],147.43 MEQ/L
same,TOTAL BILIRUBIN,[2],0.2 mg/dL
same,TOTAL PROTEIN,[2],5.63 G/DL
same,URIC ACID,[2],1.63 mg/dL
same,ABSOLUTE BASOPHIL,[3],0 CELLS/uL
same,ABSOLUTE EOSINOPHIL,[3],50.67 CELLS/uL
same,ABSOLUTE LYMPHOCYTE,[3],11758.67 CELLS/uL
same,ABSOLUTE MONOCYTE,[3],266.67 CELLS/uL
same,ABSOLUTE SEGMENTED NEUTROPHIL,[3],857.33 CELLS/uL
same,BASOPHIL,[3],0%
same,EOSINOPHIL,[3],0.33%
same,ERYTHROCYTE COUNT,[3],5.31 x10E6/uL
same,HEMATOCRIT,[3],32.77%
same,HEMOGLOBIN,[3],12.3 G/DL
same,LEUKOCYTE COUNT,[3],12.93 x10E3/uL
same,LYMPHOCYTE,[3],91.33%
same,MEAN CORPUSCULAR HEMOGLOBIN,[3],23.2 pg
same,MEAN CORPUSCULAR HEMOGLOBIN CONCENTRATION,[3],37.53 G/DL
same,MEAN CORPUSCULAR VOLUME,[3],61.7 fL
same,MONOCYTE,[3],2%
same,NEUTROPHIL,[3],6.33%
same,NUCLEATED RED BLOOD CELLS,[3],0 /100WBC
same,PLATELET COUNT,[3],1463.67 x10E3/uL
same,ALANINE AMINOTRANSFERASE,[3],24.33 u/L
same,ALBUMIN,[3],3.73 G/DL
same,ALKALINE PHOSPHATASE,[3],327.67 u/L
same,ASPARTATE AMINOTRANSFERASE,[3],90.67 u/L
same,BLOOD UREA NITROGEN,[3],16 mg/dL
same,CARBON DIOXIDE,[3],24 mmol/L
same,CHLORIDE,[3],104 MEQ/L
same,CHOLESTEROL,[3],76.33 mg/dL
same,CREATINE PHOSPHOKINASE,[3],376.67 u/L
same,CREATININE,[3],0.16 mg/dL
same,GLUCOSE,[3],151.67 mg/dL
same,LACTATE DEHYDROGENASE,[3],543.33 u/L
same,LIPASE,[3],8.33 u/L
same,PHOSPHORUS,[3],12 mg/dL
same,POTASSIUM,[3],6.59 MEQ/L
same,SODIUM,[3],145.13 MEQ/L
same,TOTAL BILIRUBIN,[3],0.3 mg/dL
same,TOTAL PROTEIN,[3],5.2 G/DL
same,URIC ACID,[3],1.63 mg/dL
same,ABSOLUTE BASOPHIL,[4],0 CELLS/uL
same,ABSOLUTE EOSINOPHIL,[4],0 CELLS/uL
same,ABSOLUTE LYMPHOCYTE,[4],11990.67 CELLS/uL
same,ABSOLUTE MONOCYTE,[4],262 CELLS/uL
same,ABSOLUTE SEGMENTED NEUTROPHIL,[4],914 CELLS/uL
same,BASOPHIL,[4],0%
same,EOSINOPHIL,[4],0%
same,ERYTHROCYTE COUNT,[4],5.81 x10E6/uL
same,HEMATOCRIT,[4],36.07%
same,HEMOGLOBIN,[4],13.33 G/DL
same,LEUKOCYTE COUNT,[4],13.17 x10E3/uL
same,LYMPHOCYTE,[4],91%
same,MEAN CORPUSCULAR HEMOGLOBIN,[4],22.97 pg
same,MEAN CORPUSCULAR HEMOGLOBIN CONCENTRATION,[4],36.97 G/DL
same,MEAN CORPUSCULAR VOLUME,[4],62.1 fL
same,MONOCYTE,[4],2%
same,NEUTROPHIL,[4],7%
same,NUCLEATED RED BLOOD CELLS,[4],0 /100WBC
same,PLATELET COUNT,[4],1293.33 x10E3/uL
same,ALANINE AMINOTRANSFERASE,[4],31 u/L
same,ALBUMIN,[4],3.6 G/DL
same,ALKALINE PHOSPHATASE,[4],266.33 u/L
same,ASPARTATE AMINOTRANSFERASE,[4],72 u/L
same,BLOOD UREA NITROGEN,[4],14.67 mg/dL
same,CARBON DIOXIDE,[4],26.33 mmol/L
same,CHLORIDE,[4],105.67 MEQ/L
same,CHOLESTEROL,[4],83 mg/dL
same,CREATINE PHOSPHOKINASE,[4],133 u/L
same,CREATININE,[4],0.23 mg/dL
same,GLUCOSE,[4],156 mg/dL
same,LACTATE DEHYDROGENASE,[4],67.67 u/L
same,LIPASE,[4],8.67 u/L
same,PHOSPHORUS,[4],12.23 mg/dL
same,POTASSIUM,[4],6.11 MEQ/L
same,SODIUM,[4],145.9 MEQ/L
same,TOTAL BILIRUBIN,[4],0.1 mg/dL
same,TOTAL PROTEIN,[4],5.63 G/DL
same,URIC ACID,[4],2 mg/dL

# From ChEMBL document CHEMBL3885881, “DrugMatrix”
